Results on two compounds are retold here after patent publication US20040220121A1, “Methods for drug delivery” (priority 2003, published 2004).

Some results are limits rather than exact numbers.

Assay [1] relates to JJ5 Breast Cancer cells. The conditions noted are these: in vitro.
Method: The EGF-^111In-labeled transferrin (0.25-80 ng) was incubated with 1.5×10^6 cells/dish JJ5 Breast Cancer (prepared from BCBM JJ5) cells in 1 mL of 0.1% human serum albumin in 35 mm multiwell culture dishes at 37° C. for 30 minutes. The cells were transferred to a centrifuge tube and centrifuged. The cell pellet was separated from the supernatant and counted in a g-scintillation counter to determine bound (B) and free (F) radioactivity. Non-specific binding was determined by conducting the assay in 100 nM hEGF. […] Internalized fraction was measured by determining the proportion of radioactivity which could not be displaced from the cell surface by 100 nM hEGF. Cell-associated binding (surface-binding and intracellular accumulation) was expressed as a percentage of medium radioactivity bound per mg of cell study protein.
For assay [2], the system named is JJ5 Breast Cancer cells. Kind of assay: Growth inhibition assay of EGF-111In-labeled transferrin composition against JJ5 breast cancer cells. The format is cell-based, human. The conditions noted are these: 3.5 pCi/cell, cultured 4 days. Here is the method: JJ5 breast cancer cells (prepared from BCBM JJ5) expressing approximately 10^6 epidermal growth factor receptors/cell were incubated with EGF-^111In-labeled transferrin composition, unlabeled hEGF or ^111In-oxine, centrifuged to remove free ligand, then assayed and seeded ([…]) into 35 mm culture dishes. Growth medium was added and the cells were cultured at 37° C./5% CO^2 for 4 days. The cells were then recovered by trypsinization and counted in a hemocytometer. Control dishes contained cells cultured in growth medium containing ^111In-DTPA or growth medium alone.

Consider “EGF-^111In-labeled transferrin composition: human EGF linked via PEG3400-biotin or peptide linker to streptavidin-transferrin, transferrin labeled with 111In”, for which the “retained by the breast cancer cells” value in the assay with JJ5 Breast Cancer cells [1] (37° C.) was “at least 24 hours”. Further, in the assay with JJ5 Breast Cancer cells [1] (over a 24 hour period at 37° C.), the “111In radioactivity lost from the cells” value is less than 8%.

Turning to `[In+3].[O-]c1cccc2cccnc12.[O-]c1cccc2cccnc12.[O-]c1cccc2cccnc12` [^111In-oxine], the “growth inhibition of the JJ5 cells” value with JJ5 Breast Cancer cells [2] was 91%.
